Laboratory results published in patent US20200024223A1, “CRYSTALLINE SALTS OF (4S,4AS,5AR,12AS)-4-DIMETHYLAMINO-3,10,12,12A-TETRAHYDROXY-7-[(METHOXY(METHYL)AMINO)-METHYL]-1,11-DIOXO-1,4,4A,5,5A,6,11,12A-OCTAHYDRO-NAPHTHACENE-2-CARBOXYLIC ACID AMIDE AND METHODS OF USING THE SAME” (priority 2011, published 2020).
In brackets after ≈: the same amount, converted by molar mass. Several values for one entry are separate records, joined by “and”; a condition that tells them apart may be missing. Identical values can stand only once. Counter-ions that a name gives are not always drawn. Each block holds one molecule with its values, some of them ahead of it.

What was measured:
[1] = test system: E. coli; test: In vitro MIC testing, antibacterial spectrum of activity; assay type: cell-based
[2] = Storage stability by HPLC-UV (chemical purity, β-isomer content, total impurity content); assay type: physicochemical; conditions: for Chemical Purity at 0 days / β-isomer content at 0 days: 0 days (after synthesis); for Chemical Purity at 75 days / β-isomer content at 75 days: stored in glass vial approximately 75 days at ambient conditions; for Chemical Purity at 7 days, 40° C. and 75% RH / β-isomer content at 7 days, 40° C. and 75% RH: storage 7 days at 40° C. and 75% RH
Method: The lower the β-isomer content, the higher the chemical purity of the salt. The β-isomer content is measured after synthesis of the salt and compared with the measured β-isomer content after storage for a designated period of time.
Another measure of chemical purity is defined by the content of other related impurities, by-products or degradation products of the salt, which represents the […] of the compound. The lower the content of total impurities as measured by HPLC, generally, by HPLC-UV, the higher the chemical purity of the salt. The total impurity content is measured after synthesis of the salt and compared with the measured total impurity content after storage for a designated period of time.
In order to determine the stability of Crystalline Mono Hydrochloride Salt, the β-isomer content of the salt was determined by HPLC-UV analysis and compared to the β-isomer content calculated after the salt was stored in an amber glass vial for approximately 75 days at ambient conditions.
The β-isomer content of Comparative Example 2 was also determined by HPLC-UV analysis at 0 days and compared to the β-isomer content calculated after the compound was stored in a clear glass vial for approximately 75 days at ambient conditions.
HPLC-UV and XRPD analysis were conducted on samples of Crystalline Mono Hydrochloride Salt, Crystalline Mesylate Salt and Crystalline Sulfate Salt at 0 days and after storage for 7 days at 40° C. and 75% RH. FIGS. 1, 4 and 7 show the XRPD analysis of the Crystalline Mono Hydrochloride Salt, Crystalline Mesylate Salt and Crystalline Sulfate Salt at 0 days and after storage at 40° C. and 75% RH with the graphs overlaid for comparison.
The results of HPLC-UV analysis for the same samples of Crystalline Mesylate Salt and Crystalline Sulfate Salt are shown in Table 4.

[3] = Advantages and disadvantages of solid forms (hygroscopicity, milling/pressing, storage); assay type: physicochemical; conditions: for Hygroscopicity: relative humidity (RH)
From the text: One measure of the stability of the physical form of the salt is hygroscopicity, which is the propensity of a substance to absorb or adsorb water molecules from the surrounding environment. Whenever moisture can promote degradation, the salt is stable if it is non-hygroscopic or mildly hygroscopic above 70% relative humidity (RH). In preferred embodiments, the salt is non-hygroscopic or mildly hygroscopic above 80% RH, and in more preferred embodiments, the salt is non-hygroscopic or mildly hygroscopic to 90% RH. “Non-hygroscopic or mildly hygroscopic” as used herein refers to a compound at about 40° C. and at an RH of about 75%, existing over about 80% w/w in solid crystalline form, preferably over about 90% w/w in solid crystalline form, that absorbs less than 10% w/w water, and preferably, less than 5% w/w water in 8 hours or less. Hygroscopicity (hygroscopic degree) is calculated based on increase in weight in a compound at comparative points of measurement. Another measure of physical stability is the crystal form of the salt, which may be measured by XPRD. The stability of Crystalline Mono Hydrochloride Salt was compared to the amorphous mono hydrochloride salt of Comparative Example 2.

[4] = Differential scanning calorimetry (DSC); assay type: physicochemical
Method: DSC analysis as disclosed herein was collected on a TA Instruments Q2000 equipped with a 50 position auto-sampler. The instrument was calibrated for energy and temperature using certified indium. The calibration for thermal capacity was carried out using sapphire. […] A nitrogen purge at 50 ml.min^−1 was maintained over the sample. The instrument control software used was Advantage for Q Series v2.8.0.392 and Thermal Advantage v4.8.3 and the data was analyzed using Universal Analysis v4.4A. […] The observed apparent weight loss is due to instability of the machine. Table 5 below compares the DSC and TGA analysis of the crystalline salts of the present invention with the crystalline free base and Comparative Example 1.

[5] = Thermo-gravimetric analysis (TGA); assay type: physicochemical
Method: TGA is used to determine changes in weight in relation to change in temperature, which may reveal degradation of the compound and the presence of solvates or hydrates. TGA analysis as disclosed herein was collected on a TA Instruments Q500 TGA equipped with a 16 position auto-sampler. The instrument was temperature calibrated using certified Alumel and Nickel. […] A nitrogen purge at 60 ml.min^−1 was maintained over the sample. The instrument control and data analysis software used was Advantage for Q Series v2.8.0.392 and Thermal Advantage v4.8.3 and the data was analyzed using Universal Analysis v4.4A. […] The observed apparent weight loss is due to instability of the machine. Table 5 below compares the DSC and TGA analysis of the crystalline salts of the present invention with the crystalline free base and Comparative Example 1.

[6] = XRPD analysis of crystal form after storage; assay type: physicochemical; conditions: 7 days at 40° C. and 75% RH vs 0 days
Method: XRPD analysis as disclosed herein was collected on a Bruker AXS C2 GADDS diffractometer using Cu Kα radiation (40 kV, 40 mA), automated XYZ stage, laser video microscope for auto-sample positioning and a HiStar 2-dimensional area detector. X-ray optics consisted of a single Gbbel multilayer mirror coupled with a pinhole collimator of 0.3 mm. The software used for data collection was GADDS for WNT 4.1.16 and the data was analyzed and presented using Diffrac Plus EVA v 9.0.0.2 or v 13.0.0.2. Samples were analyzed under ambient conditions as flat plate specimens using powder as received. Approximately 1-2 mg of the sample was lightly pressed on a glass slide to obtain a flat surface. Samples analyzed under non-ambient conditions were mounted on a silicon wafer with a heat conducting compound. The sample was then heated to the appropriate temperature at approximately 20° C.min^−1 and subsequently held isothermally for approximately 1 minute before data collection was initiated.
HPLC-UV and XRPD analysis were conducted on samples of Crystalline Mono Hydrochloride Salt, Crystalline Mesylate Salt and Crystalline Sulfate Salt at 0 days and after storage for 7 days at 40° C. and 75% RH. FIGS. 1, 4 and 7 show the XRPD analysis of the Crystalline Mono Hydrochloride Salt, Crystalline Mesylate Salt and Crystalline Sulfate Salt at 0 days and after storage at 40° C. and 75% RH with the graphs overlaid for comparison. […] The changes shown in the figure are in intensity and resolution rather than in peak position, which, if present, would indicate change in crystal form. Accordingly, Crystalline Mono Hydrochloride Salt and Crystalline Mesylate Salt are physically stable, as shown by FIGS. 1 and 4.

[7] = test system: S. agalactiae; test: In vitro MIC testing, antibacterial spectrum of activity; assay type: cell-based
[8] = test system: Streptococcus spp. [Group C]; test: as above; assay type: cell-based; conditions: Streptococcus spp. [Group C] (30 isolates)
[9] = test system: S. pyogenes; test: as above; assay type: cell-based; conditions: S. pyogenes (32 isolates)
[10] = test system: S. pneumoniae; test: as above; assay type: cell-based, Streptococcus pneumoniae; conditions: S. pneumoniae [PSSP] (32 isolates)
[11] = from about 30° C. to about 200° C.
[12] = from about 200° C. to about 250° C.

MIC50 ([1]; Escherichia coli, read-out: MIC50): 32 µg/mL (≈ 80.7 µM)
Molecule: CC(=O)OCC1=C(C(=O)O)N2C(=O)[C@@H](NC(=O)Cc3cccs3)[C@H]2SC1 [Cephalothin]

Molecule: CON(C)Cc1ccc(O)c2c1C[C@H]1C[C@H]3[C@H](N(C)C)C(O)=C(C(N)=O)C(=O)[C@@]3(O)C(O)=C1C2=O [Comparative Example 2, (4S,4aS,5aR,12aS)-4-dimethylamino-3,10,12,12a-tetrahydroxy-7-[(methoxy(methyl)amino)-methyl]-1,11-dioxo-1,4,4a,5,5a,6,11,12a-octahydro-naphthacene-2-carboxylic acid amide]
Chemical Purity at 0 days ([2]; HPLC-UV): 94.3%
β-isomer content at 0 days ([2]; HPLC-UV): 4.4%
Chemical Purity at 75 days ([2]; HPLC-UV): 90.4%
β-isomer content at 75 days ([2]; HPLC-UV): 7.8%
increase of β-isomer content after storage ([2]; storage for 75 days at ambient conditions vs 0 days): over 80%
glass transition [3]: High glass transition (166° C.)
β-isomer content upon storage at 63% RH ([3]; 63% RH): Increase in β-isomer content upon
Change in form (amorphous to crystalline) ([3]; above 75% RH): Change in form (from amorphous
β-isomer content upon storage under ambient conditions [3]: Increase in β-isomer content upon
rate of β-isomer formation upon exposure to solvent ([3]; compared to Crystalline Mono Hydrochloride Salt): Faster rate of β-isomer formation
form or β-isomer content upon milling or pressing [3]: Increase in β-isomer content upon
Hygroscopicity [3]: Hygroscopic above 70% RH
crystallization upon storage and heat/cool cycle ([3]; storage and heat/cool cycle): Stable to crystallization upon

Molecule: CON(C)Cc1ccc(O)c2c1C[C@H]1C[C@H]3[C@H](N(C)C)C(O)=C(C(N)=O)C(=O)[C@@]3(O)C(O)=C1C2=O [Crystalline Free Base, (4S,4aS,5aR,12aS)-4-dimethylamino-3,10,12,12a-tetrahydroxy-7-[(methoxy(methyl)amino)-methyl]-1,11-dioxo-1,4,4a,5,5a,6,11,12a-octahydro-naphthacene-2-carboxylic acid amide]
DSC endothermic peak [4]: 175 °C (ΔH 72 J · g^−1)
TGA weight loss ([5]; from about 30° C. to decomposition at less than 220° C.): 15% weight loss from about 30 °C

Molecule: CON(C)Cc1ccc(O)c2c1C[C@H]1C[C@H]3[C@H](N(C)C)C(O)=C(C(N)=O)C(=O)[C@@]3(O)C(O)=C1C2=O [Crystalline Mesylate Salt, (4S,4aS,5aR,12aS)-4-dimethylamino-3,10,12,12a-tetrahydroxy-7-[(methoxy(methyl)amino)-methyl]-1,11-dioxo-1,4,4a,5,5a,6,11,12a-octahydro-naphthacene-2-carboxylic acid amide]
Chemical Purity at 0 days ([2]; HPLC-UV): 92%
β-isomer content at 0 days ([2]; HPLC-UV): 3%
Chemical Purity at 7 days, 40° C. and 75% RH ([2]; HPLC-UV): 98%
β-isomer content at 7 days, 40° C. and 75% RH ([2]; HPLC-UV): 2%
crystal form by XRPD after storage [6]: no change in crystal form
TGA weight loss [5, 11]: 3% weight loss from about 30 °C to
TGA weight loss [5, 12]: 7% weight loss from about 200 °C

Molecule: CON(C)Cc1ccc(O)c2c1C[C@H]1C[C@H]3[C@H](N(C)C)C(O)=C(C(N)=O)C(=O)[C@@]3(O)C(O)=C1C2=O [Crystalline Mono Hydrochloride Salt, (4S,4aS,5aR,12aS)-4-dimethylamino-3,10,12,12a-tetrahydroxy-7-[(methoxy(methyl)amino)-methyl]-1,11-dioxo-1,4,4a,5,5a,6,11,12a-octahydro-naphthacene-2-carboxylic acid amide]
total impurity content at 0 days ([2]; HPLC-UV, 0 days): 4 % peak area
Chemical Purity at 0 days ([2]; HPLC-UV): 93.8% and 95.8%
β-isomer content at 0 days ([2]; HPLC-UV): 3.8%
Chemical Purity at 75 days ([2]; HPLC-UV): 94.8%
β-isomer content at 75 days ([2]; HPLC-UV): 3.8%
total impurity content after storage ([2]; about 6 months at about 40° C. and about 75% RH): 6 % peak area
crystal form by XRPD after storage [6]: no change in crystal form
TGA weight loss [5, 11]: 3% weight loss from about 30 °C to
TGA weight loss [5, 12]: 14% weight loss from about 200 °C
β-isomer content upon storage under ambient conditions [3]: No increase in β-isomer content
form or β-isomer content upon milling or pressing [3]: No change in form or β-isomer
crystallinity upon pressing and milling ([3]; pressing and milling): Some loss of crystallinity upon
Hygroscopicity [3]: Non-hygroscopic to 90% RH

Molecule: CON(C)Cc1ccc(O)c2c1C[C@H]1C[C@H]3[C@H](N(C)C)C(O)=C(C(N)=O)C(=O)[C@@]3(O)C(O)=C1C2=O [Crystalline Sulfate Salt, (4S,4aS,5aR,12aS)-4-dimethylamino-3,10,12,12a-tetrahydroxy-7-[(methoxy(methyl)amino)-methyl]-1,11-dioxo-1,4,4a,5,5a,6,11,12a-octahydro-naphthacene-2-carboxylic acid amide]
Chemical Purity at 0 days ([2]; HPLC-UV): 88%
β-isomer content at 0 days ([2]; HPLC-UV): 9%
Chemical Purity at 7 days, 40° C. and 75% RH ([2]; HPLC-UV): 91%
β-isomer content at 7 days, 40° C. and 75% RH ([2]; HPLC-UV): 9%
crystal form by XRPD after storage [6]: increased crystalline content
TGA weight loss [5, 11]: 3% weight loss from about 30 °C to
TGA weight loss [5, 12]: 14% weight loss from about 200 °C

Molecule: CN(C)[C@@H]1C(O)=C(C(N)=O)C(=O)[C@@]2(O)C(O)=C3C(=O)c4c(O)cccc4[C@@](C)(O)[C@H]3C[C@@H]12 [Tetracycline, tetracycline]
MIC Range ([7]; S. agalactiae [tetR] (7 isolates)): 16 to 64 µg/mL
MIC Range ([7]; S. agalactiae [tetS] (3 isolates)): 0.25-0.25 μg/mL
MIC Range ([1]; E. coli [tetS] (7 isolates)): 1 to 4 µg/mL

Molecule: Penicillin
MIC50 [8]: ≤0.015 µg/mL
MIC90 [8]: ≤0.015 µg/mL
MIC Range [8]: ≤0.015 to 0.03 µg/mL
MIC Range ([7]; S. agalactiae (31 isolates)): ≤0.015 to 2 µg/mL
MIC50 [9]: ≤0.015 µg/mL
MIC90 [9]: ≤0.015 µg/mL
MIC Range [9]: ≤0.015 to 0.25 µg/mL
MIC50 [10]: ≤0.015 µg/mL
MIC Range [10]: ≤0.015 to 0.12 µg/mL
